Source: patent US20170042890A1, “METHODS OF REDUCING DECLINE IN VITAL CAPACITY” (Cytokinetics, Inc., priority 2014, published 2017)

Key:
[1] = system: slow skeletal muscle troponin; conditions: cited from earlier work
patients with ALS [2] = assay: BENEFIT-ALS clinical trial: Maximum Voluntary Ventilation (MVV); assay type: in vivo, human
Procedure: (§1) BENEFIT-ALS was a multi-national, randomized, stratified, double-blind, placebo-controlled, parallel-group study of tirasemtiv in patients with ALS. The study consisted of a screening period, an open-label/lead-in period, and a double-blind treatment period. Following screening, eligible patients received open-label tirasemtiv, 125 mg BID, for 7 days. Patients who tolerated the 7-day lead-in period were randomized in a 1:1 ratio to tirasemtiv or placebo. Over the first 3 weeks of double-blind treatment, patients randomized to tirasemtiv had their TDD up-titrated as follows: 250 mg for 7 days, then 375 mg for 7 days, then 500 mg for 7 days. […] However, in such cases, dose escalation was re-attempted at least one additional time. The highest tolerable tirasemtiv dose for each individual patient was the dose that patient received for the remaining 9 weeks (i.e., the maximum tolerated dose [MTD] phase) of the study. Patients randomized to placebo underwent a corresponding dummy dose titration.
(§2) Randomization was stratified by riluzole use. […] Clinical assessments occurred every 4 weeks during double-blind treatment; patients also returned for follow-up evaluations at 1 and 4 weeks after their final dose of double-blind study medication (FIG. 1).
(§3) The secondary objectives included assessments of the effect of tirasemtiv versus placebo on measures of respiratory function (Maximum Voluntary Ventilation (MVV), Sniff Nasal Inspiratory Pressure (SNIP), SVC) and skeletal muscle function including handgrip fatigue and muscle-strength mega-score (i.e., the average z-score for muscle strength measurements across the following tested bilateral muscle groups: elbow flexion, wrist extension, knee extension, ankle dorsiflexion, and handgrip)). Secondary endpoints included the changes from baseline in each of the above mentioned measures (MVV, SNIP, SVC, and muscle-strength mega-score) for the Modified FAS, and the slope of each of the measures from baseline to Week 12 for the Modified FAS.
(§4) Eligible patients were males and females, 18 years of age and older, with a diagnosis of familial or sporadic ALS and meeting the World Federation of Neurology El Escorial criteria of definite ALS, probable ALS, laboratory-supported probable ALS, or possible ALS. Patients were to have an upright SVC>50% of predicted for age, height, and sex, a diminished, but measurable, maximum voluntary grip strength in at least one hand (i.e., between 10-50 pounds for females and 10-70 pounds for males), and at least 4 of the 12 ALSFRS-R questions were to have been scored as a 2 or 3. Patients were to be able to swallow tablets without crushing, and in the opinion of the investigator, were expected to do so for the duration of the study. If the patient needed a caregiver, the caregiver was to be able to observe the patient's status. Clinical laboratory results were to be either within their respective normal ranges or if outside the normal range, deemed not clinically significant by the investigator. […] Patients not taking riluzole prior to study entry were not permitted to take riluzole at any dose during the course of the study.
(§5) Safety data presented were based on the safety analysis set, defined as all patients who received at least 1 dose of double-blind study drug. Of the 605 randomized patients, 596 (295 placebo, 301 tirasemtiv) received at least 1 dose of double-blind study drug and were included in the safety analysis set. Data for the primary and secondary efficacy endpoints were analyzed with the Modified FAS. This analysis set included all patients who received at least 1 dose of double-blind study drug and had at least 1 efficacy assessment during the double-blind treatment period, and excluded 156 patients who were randomized in blocks containing patients affected by a study drug assignment error in which 58 patients randomized to and treated with double-blind tirasemtiv were dispensed double-blind placebo instead. […]

patients with ALS [3] = assay: BENEFIT-ALS clinical trial: handgrip fatigue at 60% of target in the weaker hand; assay type: in vivo, human
Procedure: as §1, §2, §3, §4, §5

patients with ALS [4] = assay: BENEFIT-ALS clinical trial: ALSFRS-R total score; assay type: in vivo, human; conditions: Modified FAS
Procedure: as §1
Randomization was stratified by riluzole use. […] Clinical assessments occurred every 4 weeks during double-blind treatment; patients also returned for follow-up evaluations at 1 and 4 weeks after their final dose of double-blind study medication (FIG. 1). […]
Eligible patients were males and females, 18 years of age and older, with a diagnosis of familial or sporadic ALS and meeting the World Federation of Neurology El Escorial criteria of definite ALS, probable ALS, laboratory-supported probable ALS, or possible ALS. Patients were to have an upright SVC>50% of predicted for age, height, and sex, a diminished, but measurable, maximum voluntary grip strength in at least one hand (i.e., between 10-50 pounds for females and 10-70 pounds for males), and at least 4 of the 12 ALSFRS-R questions were to have been scored as a 2 or 3. […]
Safety data presented were based on the safety analysis set, defined as all patients who received at least 1 dose of double-blind study drug. […] Data for the primary and secondary efficacy endpoints were analyzed with the Modified FAS. […]

muscle = conditions: other model systems; cited from earlier work
CYP 1A2 = biological target: T1, CYP 1A2 (Homo sapiens, UniProt P05177); conditions: cited from earlier work
T1 sequence (P05177 1-516): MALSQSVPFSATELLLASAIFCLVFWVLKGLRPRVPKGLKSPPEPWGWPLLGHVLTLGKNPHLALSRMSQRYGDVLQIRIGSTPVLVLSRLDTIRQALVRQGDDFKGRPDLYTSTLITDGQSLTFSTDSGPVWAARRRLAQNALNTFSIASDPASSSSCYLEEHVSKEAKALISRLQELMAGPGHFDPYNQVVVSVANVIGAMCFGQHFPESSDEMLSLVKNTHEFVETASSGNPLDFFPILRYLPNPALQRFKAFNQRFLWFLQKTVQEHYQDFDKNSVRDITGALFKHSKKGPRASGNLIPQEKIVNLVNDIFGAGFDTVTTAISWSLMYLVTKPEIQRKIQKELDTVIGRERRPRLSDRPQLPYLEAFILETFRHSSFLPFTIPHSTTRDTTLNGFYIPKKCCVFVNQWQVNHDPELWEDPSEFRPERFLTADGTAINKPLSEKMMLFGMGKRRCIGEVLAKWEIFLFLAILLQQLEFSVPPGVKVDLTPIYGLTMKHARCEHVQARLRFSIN

[5] = BENEFIT-ALS clinical trial: body weight; assay type: in vivo; conditions: N=178
Procedure: as §1
Safety data presented were based on the safety analysis set, defined as all patients who received at least 1 dose of double-blind study drug. Of the 605 randomized patients, 596 (295 placebo, 301 tirasemtiv) received at least 1 dose of double-blind study drug and were included in the safety analysis set. Data for the primary and secondary efficacy endpoints were analyzed with the Modified FAS. This analysis set included all patients who received at least 1 dose of double-blind study drug and had at least 1 efficacy assessment during the double-blind treatment period, and excluded 156 patients who were randomized in blocks containing patients affected by a study drug assignment error in which 58 patients randomized to and treated with double-blind tirasemtiv were dispensed double-blind placebo instead. Based on these criteria, the Modified FAS consisted of 388 patients (210 placebo, 178 tirasemtiv).

C#Cc1cnc2nc(O)n(C(CC)CC)c2n1 [Tirasemtiv, 6-ethynyl-1-(pentan-3-yl)-1H-imidazo[4,5-b]pyrazin-2(3H)one]
Effect on slow skeletal muscle troponin [1]: little effect | MVV slope from baseline to Week 12 (patients with ALS [2]; Modified FAS N=178): −0.0567 | MVV change from baseline (LS mean) (patients with ALS [2]; Week 4, Modified FAS N=178): -2.89 L/min | MVV change from baseline (LS mean) (patients with ALS [2]; Week 8, Modified FAS N=178): -2.14 L/min | MVV change from baseline (LS mean) (patients with ALS [2]; Week 12, Modified FAS N=178): -5.45 L/min | MVV versus placebo, in words (patients with ALS [2]; human, in vivo): no statistically significant difference between treatment groups | MVV difference in slope (tirasemtiv vs placebo) (patients with ALS [2]; p=0.8799): 0.0044 | Handgrip fatigue slope from baseline to Week 12 (patients with ALS [3]; Modified FAS N=178): 0.0458 | Handgrip fatigue at 60% of target in the weaker hand, change from baseline (LS mean) (patients with ALS [3]; Week 4, Modified FAS N=178): -1.77 s | Handgrip fatigue at 60% of target in the weaker hand, change from baseline (LS mean) (patients with ALS [3]; Week 8, Modified FAS N=178): 4.60 s | Handgrip fatigue at 60% of target in the weaker hand, change from baseline (LS mean) (patients with ALS [3]; Week 12, Modified FAS N=178): -0.57 s | Handgrip fatigue versus placebo, in words (patients with ALS [3]; human, in vivo): no statistically significant difference between treatment groups | Handgrip fatigue difference in slope (tirasemtiv vs placebo) (patients with ALS [3]; p=0.6372): 0.0332 | ALSFRS total score change versus placebo, in words (patients with ALS [4]; Visits 6 and 7): not statistically different between treatment groups | LS mean±SE difference between treatment groups (tirasemtiv response minus placebo response) in ALSFRS total score change (patients with ALS [4]; Visits 6 and 7, 95% CI −1.30, 0.14, p=0.114): −0.58±0.366 | LS mean change from baseline to the average of ALSFRS total score at Visits 6 and 7 (patients with ALS [4]; after approx. 8 and 12 weeks double-blind, tirasemtiv BID up to 500 mg/day): −2.98 | Fatigability of muscle (muscle): decreased fatigability of muscle | Muscle power (muscle): increased muscle power | Effect on CYP 1A2 (CYP 1A2): inhibited | Weight change from baseline, LS mean ([5]; Week 4): -0.83 kg | Weight change from baseline, LS mean ([5]; Week 8): -1.30 kg | Weight change from baseline, LS mean ([5]; Week 12): -1.70 kg
